The source of these data is patent US20240116985A1, “STAPLED PEPTIDES AND METHODS THEREOF” (priority 2020, published 2024).

Experiment [1] concerns the target T1, full-length beta-Catenin (Uniprot ID P35222) (Homo sapiens, UniProt P35222).
T1 construct: 10 nM full-length beta-Catenin (Uniprot ID P35222)
T1 sequence (P35222 1-781): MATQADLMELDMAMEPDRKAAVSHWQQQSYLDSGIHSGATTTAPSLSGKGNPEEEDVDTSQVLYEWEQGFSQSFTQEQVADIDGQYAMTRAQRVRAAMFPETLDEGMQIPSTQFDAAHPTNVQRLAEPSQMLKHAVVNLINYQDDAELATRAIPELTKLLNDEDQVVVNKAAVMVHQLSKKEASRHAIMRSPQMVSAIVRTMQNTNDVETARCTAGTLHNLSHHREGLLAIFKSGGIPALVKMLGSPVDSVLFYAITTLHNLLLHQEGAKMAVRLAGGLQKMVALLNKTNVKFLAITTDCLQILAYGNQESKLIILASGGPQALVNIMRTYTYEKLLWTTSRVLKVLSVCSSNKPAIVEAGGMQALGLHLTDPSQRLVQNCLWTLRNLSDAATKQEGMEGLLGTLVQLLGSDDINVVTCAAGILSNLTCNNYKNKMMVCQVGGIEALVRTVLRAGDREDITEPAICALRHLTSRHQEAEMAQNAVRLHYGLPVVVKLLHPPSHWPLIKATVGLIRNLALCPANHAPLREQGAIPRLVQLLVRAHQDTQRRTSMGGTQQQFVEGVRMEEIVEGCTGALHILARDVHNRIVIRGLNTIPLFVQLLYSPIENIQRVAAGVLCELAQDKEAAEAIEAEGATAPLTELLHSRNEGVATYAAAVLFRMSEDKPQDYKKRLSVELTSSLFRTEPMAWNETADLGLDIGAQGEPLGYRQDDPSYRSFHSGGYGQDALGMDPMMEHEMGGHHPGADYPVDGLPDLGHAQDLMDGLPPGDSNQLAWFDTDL
In words: Fluorescence polarization IC50 (beta-catenin / 5FAM-TCF4 10-53 competition). In kind it is binding. As to conditions: fluorescence polarization; read-out: beta-Catenin FP IC50.

Experiment [2] concerns the target T2, beta-catenin/TCF4 engagement (Homo sapiens, UniProt P35222).
T2 construct: expressed in transfected cells; host or cells: HEK293
T2 sequence (P35222 1-781): T1 sequence (P35222 1-781)
In words: Nano-BRET target engagement assay (B-cat-Halo & TCF4-Luc in HEK293 cells). Type of experiment: cell-based. As to conditions: absolute IC50; read-out: NanoBRET Abs IC50. Background: Bioluminescence resonance energy transfer reports proximity on the nanometre scale.

With `CC(=O)N1CCC[C@]12CC=CCCCC1(CCCC=CCCCOC(=O)N3CC[C@@](C(=O)N[C@@H](Cc4ccccc4Cl)C(=O)N[C@@H](Cc4csc5ccccc45)C(=O)N[C@@H](CCC(N)=O)C(N)=O)(C3)NC(=O)[C@H]([C@@H](C)O)NC(=O)[C@H](Cc3ccccc3)NC(=O)CNC(=O)C(C)(C)NC(=O)[C@H](CN(CC(=O)O)CC(F)(F)F)NC(=O)[C@H](CC(=O)O)NC1=O)NC(=O)[C@H](CC(C)(C)C)NC(=O)[C@H](CC(=O)O)NC2=O` (stereo partly drawn) [I-1696, Ac-PL3-Asp-Npg-B5-Asp-TfeGA-Aib-Gly-Phe-Thr-PyrS2-2C1F-BztA-Gln-NH2], the results for the IC50 in experiment [1] and in experiment [2] were 32 nM and 35500 nM, respectively.
Take `CC(=O)N1CCC[C@]12CCCCCCC1(CCCCCCCCCOC(=O)N3CC[C@@](C(=O)N[C@@H](Cc4ccsc4)C(=O)N[C@@H](Cc4csc5ccccc45)C(=O)N[C@@H](CCC(N)=O)C(N)=O)(C3)NC(=O)[C@H](CC(C)C)NC(=O)[C@H](Cc3ccccc3)NC(=O)[C@H](C)NC(=O)[C@H](C)NC(=O)[C@H](CN(CC(=O)O)CC(F)(F)F)NC(=O)[C@H](CC(=O)O)NC1=O)NC(=O)[C@H](CC(C)(C)C)NC(=O)[C@H](CC(=O)O)NC2=O` (stereo partly drawn) [I-1697, Ac-PL3-Asp-Npg-B5-Asp-TfeGA-Ala-Ala-Phe-Leu-PyrS3-3Thi-BztA-Gln-NH2]: the IC50 in experiment [1] was 179 nM; in experiment [2], above 20000 nM.
For the compound `CC(=O)N1CCC[C@]12CCCCCCC1(CCCCCCCCCCC[C@@](C)(C(=O)N[C@@H](Cc3ccsc3)C(=O)N[C@@H](Cc3csc4ccccc34)C(=O)N[C@@H](CCC(N)=O)C(N)=O)NC(=O)[C@H](CC(C)C)NC(=O)[C@H](Cc3ccccc3)NC(=O)[C@H](C)NC(=O)[C@H](C)NC(=O)[C@H](CN(CC(=O)O)CC(F)(F)F)NC(=O)[C@H](CC(=O)O)NC1=O)NC(=O)[C@H](CC(C)(C)C)NC(=O)[C@H](CC(=O)O)NC2=O` (stereo partly drawn) [I-1698, Ac-PL3-Asp-Npg-B5-Asp-TfeGA-Ala-Ala-Phe-Leu-S8-3Thi-BztA-Gln-NH2], the results for the IC50 in experiment [1] and in experiment [2] were 165 nM and above 20000 nM, respectively.
`CC(=O)N1CCC[C@]12CC=CCCCC1(CCCC=CCCCOC(=O)N3CC[C@@](C(=O)N[C@@H](Cc4ccccc4)C(=O)N[C@@H](Cc4csc5ccccc45)C(=O)N[C@@H](CCC(N)=O)C(N)=O)(C3)NC(=O)[C@H](CC(C)C)NC(=O)[C@H](Cc3ccccc3)NC(=O)[C@H](C)NC(=O)[C@H](C)NC(=O)[C@H](CN(CC(=O)O)CC(F)(F)F)NC(=O)[C@H](CC(=O)O)NC1=O)NC(=O)[C@H](CC(C)(C)C)NC(=O)[C@H](CC(=O)O)NC2=O` (stereo partly drawn) [I-1700, Ac-PL3-Asp-Npg-B5-Asp-TfeGA-Ala-Ala-Phe-Leu-PyrS2-Phe-BztA-Gln-NH2]: the IC50 was found to be 16 nM in experiment [1] and 4800 nM in experiment [2].
In the same order, the values of `CC(=O)N1CCC[C@]12CC=CCCCC1(CCCC=CCCCOC(=O)N3CC[C@@](C(=O)N[C@@H](Cc4cccnc4)C(=O)N[C@@H](Cc4csc5ccccc45)C(=O)N[C@@H](CCC(N)=O)C(N)=O)(C3)NC(=O)[C@H](CC(C)C)NC(=O)[C@H](Cc3ccccc3)NC(=O)[C@H](C)NC(=O)[C@H](C)NC(=O)[C@H](CN(CC(=O)O)CC(F)(F)F)NC(=O)[C@H](CC(=O)O)NC1=O)NC(=O)[C@H](CC(C)(C)C)NC(=O)[C@H](CC(=O)O)NC2=O` (stereo partly drawn) [I-1701, Ac-PL3-Asp-Npg-B5-Asp-TfeGA-Ala-Ala-Phe-Leu-PyrS2-3PyrA-BztA-Gln-NH2] are 25 nM and 24800 nM.
In the same order, the values of `CC(=O)N1CCC[C@]12CC=CCCCC1(CCCC=CCCCOC(=O)N3CC[C@@](C(=O)N[C@@H](Cc4ccccc4C#N)C(=O)N[C@@H](Cc4csc5ccccc45)C(=O)N[C@@H](CCC(N)=O)C(N)=O)(C3)NC(=O)[C@H](CC(C)C)NC(=O)[C@H](Cc3ccccc3)NC(=O)[C@H](C)NC(=O)[C@H](C)NC(=O)[C@H](CN(CC(=O)O)CC(F)(F)F)NC(=O)[C@H](CC(=O)O)NC1=O)NC(=O)[C@H](CC(C)(C)C)NC(=O)[C@H](CC(=O)O)NC2=O` (stereo partly drawn) [I-1702, Ac-PL3-Asp-Npg-B5-Asp-TfeGA-Ala-Ala-Phe-Leu-PyrS2-2CNF-BztA-Gln-NH2] are 17 nM and 6900 nM.
On to `CC(=O)N1CCC[C@]12CC=CCCCC1(CCCC=CCCCOC(=O)N3CC[C@@](C(=O)N[C@@H](Cc4ccccc4C(F)(F)F)C(=O)N[C@@H](Cc4csc5ccccc45)C(=O)N[C@@H](CCC(N)=O)C(N)=O)(C3)NC(=O)[C@H](CC(C)C)NC(=O)[C@H](Cc3ccccc3)NC(=O)[C@H](C)NC(=O)[C@H](C)NC(=O)[C@H](CN(CC(=O)O)CC(F)(F)F)NC(=O)[C@H](CC(=O)O)NC1=O)NC(=O)[C@H](CC(C)(C)C)NC(=O)[C@H](CC(=O)O)NC2=O` (stereo partly drawn) [I-1704, Ac-PL3-Asp-Npg-B5-Asp-TfeGA-Ala-Ala-Phe-Leu-PyrS2-2F3MeF-BztA-Gln-NH2], for which the IC50 in experiment [1] worked out at 37 nM; in experiment [2] it was 5300 nM.
Take `CC(=O)N1CCC[C@]12CC=CCCCC1(CCCC=CCCCOC(=O)N3CC[C@@](C(=O)N[C@@H](Cc4ccsc4)C(=O)N[C@@H](Cc4csc5ccccc45)C(=O)N[C@@H](CC(N)=O)C(N)=O)(C3)NC(=O)[C@H](CC(C)C)NC(=O)[C@H](Cc3ccccc3)NC(=O)[C@H](C)NC(=O)[C@H](C)NC(=O)[C@H](CN(CC(=O)O)CC(F)(F)F)NC(=O)[C@H](CC(=O)O)NC1=O)NC(=O)[C@H](CC(C)(C)C)NC(=O)[C@H](CC(=O)O)NC2=O` (stereo partly drawn) [I-1705, Ac-PL3-Asp-Npg-B5-Asp-TfeGA-Ala-Ala-Phe-Leu-PyrS2-3Thi-BztA-Asn-NH2]: the IC50 in experiment [1] worked out at 9 nM; in experiment [2] it was 2900 nM.
The matching figures for `CC(=O)N1CCC[C@]12CC=CCCCC1(CCCC=CCCCOC(=O)N3CC[C@@](C(=O)N[C@@H](Cc4ccsc4)C(=O)N[C@@H](Cc4csc5ccccc45)C(=O)N[C@@H](Cc4ccccc4C(N)=O)C(N)=O)(C3)NC(=O)[C@H](CC(C)C)NC(=O)[C@H](Cc3ccccc3)NC(=O)[C@H](C)NC(=O)[C@H](C)NC(=O)[C@H](CN(CC(=O)O)CC(F)(F)F)NC(=O)[C@H](CC(=O)O)NC1=O)NC(=O)[C@H](CC(C)(C)C)NC(=O)[C@H](CC(=O)O)NC2=O` (stereo partly drawn) [I-1707, Ac-PL3-Asp-Npg-B5-Asp-TfeGA-Ala-Ala-Phe-Leu-PyrS2-3Thi-BztA-2cbmf-NH2]: 19 nM and 6100 nM.
In the same order, the values of `CC(=O)N1CCC[C@]12CC=CCCCC1(CCCC=CCCCOC(=O)N3CC[C@@](C(=O)N[C@@H](Cc4ccsc4)C(=O)N[C@@H](Cc4csc5ccccc45)C(=O)N[C@@H](Cc4cccc(C(N)=O)c4)C(N)=O)(C3)NC(=O)[C@H](CC(C)C)NC(=O)[C@H](Cc3ccccc3)NC(=O)[C@H](C)NC(=O)[C@H](C)NC(=O)[C@H](CN(CC(=O)O)CC(F)(F)F)NC(=O)[C@H](CC(=O)O)NC1=O)NC(=O)[C@H](CC(C)(C)C)NC(=O)[C@H](CC(=O)O)NC2=O` (stereo partly drawn) [I-1708, Ac-PL3-Asp-Npg-B5-Asp-TfeGA-Ala-Ala-Phe-Leu-PyrS2-3Thi-BztA-3cbmf-NH2] are 29 nM and 11900 nM.
The matching figures for `CC(=O)N1CCC[C@]12CCCCCCC1(CCCCCCCCOC(=O)N3CC[C@@](C(=O)N[C@@H](Cc4ccccc4)C(=O)N[C@@H](Cc4csc5ccccc45)C(=O)N[C@@H](CCC(N)=O)C(N)=O)(C3)NC(=O)[C@H](CC(C)C)NC(=O)[C@H](Cc3ccccc3)NC(=O)[C@H](C)NC(=O)[C@H](C)NC(=O)[C@H](CN(CC(=O)O)CC(F)(F)F)NC(=O)[C@H](CC(=O)O)NC1=O)NC(=O)[C@H](CC(C)(C)C)NC(=O)[C@H](CC(=O)O)NC2=O` (stereo partly drawn) [I-1711, Ac-PL3-Asp-Npg-B5-Asp-TfeGA-Ala-Ala-Phe-Leu-PyrS2-Phe-BztA-Gln-NH2]: 232 nM and 33300 nM.

What is called IC50 is the concentration at which inhibition is half-maximal.
